Reference: patent US20240166587A1, “SARS-CoV-2 inhibitors - artificial compounds” (priority 2021, published 2024)
Values joined by “and” are separate entries in the source; they are usually repeats but may differ in a detail not shown here. Equal values may be shown once. Read-outs that look alike come from different tables or passages of the source.

Columns and labels:
SARS-CoV-2 [1] = assay type: cell-based; conditions: Vero cells; for Experiment 2: repeat of TCID50 assay with a dose of 50 uM / Experiment 2: Fold reduction of TCID50 / Experiment 3: repeat of TCID50 assay with a dose of 50 uM / Experiment 3: Fold reduction of TCID50: substance 50 μM; for Experiment 2: Fold reduction of TCID50: experiment 2, versus DMSO ctrl; for Experiment 3: Fold reduction of TCID50: experiment 3, versus DMSO ctrl
SARS-CoV-2 [2] = assay type: cell-based; conditions: Vero cells, different concentrations, 48 hours
SARS-CoV-2 [3] = assay type: cell-based; conditions: for effect on virus proliferation after short term incubation: versus untreated controls
[4] = target: T1, RBD to ACE2 receptor binding (Severe acute respiratory syndrome coronavirus 2, UniProt P0DTC2); test: Molecular interaction assay to detect inhibition of RBD to ACE2 receptor binding; conditions: for inhibitory effect on binding to ACE2 receptor: His-tagged RBD, plate bound ACE2
T1 construct: 200 ng His-tagged RBD was incubated
Procedure: The molecular interaction assay to detect inhibition of RBD to ACE2 receptor binding was performed as described (Gattinger et al., Allergy, 76 (2021), 878-883) with following alterations: 200 ng His-tagged RBD was incubated with various doses (100, 50, 25, 12.2, and 6 mM) of substance X for three hours at RT followed by a 3-hours overlay onto plate bound ACE2 (2 μg/ml). Bound RBD was then detected with a mouse monoclonal anti-His antibody followed by an HRP-labelled anti-mouse IgG1 antibody and detected with ABTS detected. All measurements were performed in duplicates with a variation of <5%.

SARS-CoV-2 [5] = assay type: cell-based; conditions: Vero E6, 48 hrs

Compound | Experiment 1: TCID50 assay with 2 doses/substance, 10 μM (SARS-CoV-2 [1]) | Experiment 2: repeat of TCID50 assay with a dose of 50 uM (SARS-CoV-2 [1]) | Experiment 2: Fold reduction of TCID50 (SARS-CoV-2 [1]) [fold] | Experiment 3: repeat of TCID50 assay with a dose of 50 uM (SARS-CoV-2 [1]) | Experiment 3: Fold reduction of TCID50 (SARS-CoV-2 [1]) | Experiment 1: TCID50 assay with 2 doses/substance, 100 μM (SARS-CoV-2 [1]) | inhibition of virus proliferation (SARS-CoV-2 [2]) | effect on virus proliferation after short term incubation (SARS-CoV-2 [3]) | inhibitory effect on binding to ACE2 receptor [4] | ct values after short term incubation (SARS-CoV-2 [3]; 25 μM for one hour) | ct values after short term incubation (SARS-CoV-2 [3]; 50 μM for one hour) | inhibition at 100 µM ([4]; 100 μM) [%] | inhibition of viral replication (SARS-CoV-2 [5]; 80 μM) | inhibition of viral replication (SARS-CoV-2 [5]; 100 μM)
Oc1cc(O)c2c(c1)O[C@H](c1cc(O)c(O)c(O)c1)[C@H](O)C2 [VII, (−)-epigallocatechin] | 2.15 × 10^4 TCID50/mL | 2.89 × 10^5 TCID50/mL | 1.09 | 3.80 × 10^5 TCID50/mL | 7.09 fold | 3.16 × 10^3 TCID50/mL | – | – | – | – | – | – | – | –
O=C(O)c1cc(O)c(O)c(O)c1 [Compound I, gallic acid] | 3.16 × 10^5 TCID50/mL | 3.16 × 10^4 TCID50/mL | 9.97 | 4.44 × 10^5 TCID50/mL | 9.27 fold | 3.56 × 10^5 TCID50/mL | – | – | – | – | – | – | – | –
(−) epigallocatechin gallate [Compound IV] | 3.36 × 10^4 TCID50/mL | 3.16 × 10^3 TCID50/mL | 99.7 | 5.12 × 10^3 TCID50/mL | 802 fold and 802.3 fold | cytotoxic | inhibition of virus proliferation | did not have any effects on the virus proliferation | did not show any inhibitory effects | – | – | – | – | –
(−)-gallocatechin gallate [VIII] | 2.15 × 10^5 TCID50/mL | 3.16 × 10^3 TCID50/mL | 99.7 | 8 × 10^5 TCID50/mL | 5.14 fold | 4.64 × 10^2 TCID50/mL | inhibition of virus proliferation | did not have any effects on the virus proliferation | did not show any inhibitory effects | – | – | – | – | –
Oc1cc(/C=C/c2cc(O)c(O)c(O)c2)cc(O)c1O [Compound X, 3,3′,4,4′,5,5′-hexahydroxy-trans-stilbene] | 5.88 × 10^4 TCID50/mL | 3.16 × 10^3 TCID50/mL | 99.7 | 1.95 × 10^3 TCID50/mL | 2107 fold and 2107.2 fold | 4.64 × 10^2 TCID50/mL | inhibition of virus proliferation | could inhibit virus proliferation in a concentration dependent manner | could inhibit binding to ACE2 in a concentration dependent manner | significantly increased | significantly increased | 21 to 31 | inhibit viral replication completely | inhibit viral replication completely
Oc1ccc(/C=C/c2cc(O)cc(O)c2)cc1 [trihydroxystilbene, trans-3,5,4′-trihydroxystilbene] | – | – | – | – | – | – | – | – | – | – | – | – | – | low inhibition of viral replication
